# What was measured:
# Assay type in all cases: in vivo
# [1] = tested on: winter barley (Hordeum vulgare); experiment: Test B postemergence plant response; conditions: for Barley plant response rating (0 to 100 scale): 62 g ai/ha, 0 is no effect, 13 to 15 days
# How it was run: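 Visual ratings from 0 (no effect) to 100 (complete control), made against controls 13–15 days after treatment, kept in a greenhouse. Compounds were applied postemergence to potted plants at the 1- to 4-leaf stage (2–18 cm).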
# [2] = tested on: wheat (Triticum aestivum); experiment: Test A pre-/postemergence plant response
# How it was run: (§1)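 Greenhouse trial, ~10 days. Soil (loam/sand) sprayed preemergence after seeding; emerged plants (1–2 leaf, 2–10 cm) sprayed postemergence in parallel. Response = visual injury vs untreated control, 0–100.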
# [3] = tested on: barnyardgrass (Echinochloa crus-galli); experiment: Test A pre-/postemergence plant response
# How it was run: as §1
# corn (Zea mays) = experiment: Test A pre-/postemergence plant response
# How it was run: as §1
# [4] = tested on: pigweed (Amaranthus retroflexus); experiment: Test A pre-/postemergence plant response
# How it was run: as §1
# [5] = tested on: giant foxtail (Setaria faberii); experiment: Test A pre-/postemergence plant response
# How it was run: as §1
# [6] = tested on: large crabgrass (Digitaria sanguinalis); experiment: Test A pre-/postemergence plant response
# How it was run: as §1
# [7] = tested on: velvetleaf (Abutilon theophrasti); experiment: Test A pre-/postemergence plant response
# How it was run: as §1
# [8] = tested on: morningglory (Ipomoea spp.); experiment: Test A pre-/postemergence plant response
# How it was run: as §1
# [9] = tested on: barnyardgrass (Echinochloa crus-galli); experiment: Test B flooded paddy test; conditions: for Plant response rating, Flood, Barnyardgrass: 250 g ai/ha, flooded paddy test, visual rating on 0 to 100 scale (0 no effect, 100 complete control) after 13 to 15 days; for Plant response rating, Barnyardgrass: Flood (flooded paddy test), 13 to 15 days; for Barnyardgrass plant response rating: Flood, 31 g ai/ha, scale 0 to 100 (0 no effect, 100 complete control)
# How it was run: (§2)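 Post-flood paddy application: compounds are introduced into water 3 cm deep over the soil, reaching plants at the 2-leaf stage. The water level is maintained, and after 13–15 days under greenhouse conditions, response is judged by eye relative to controls, where 100 means complete control.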
# [10] = tested on: ducksalad (Heteranthera limosa); experiment: Test B flooded paddy test; conditions: for Plant response rating, Flood, Ducksalad: 250 g ai/ha, flooded paddy test, visual rating on 0 to 100 scale (0 no effect, 100 complete control) after 13 to 15 days; for Plant response rating, Ducksalad: Flood (flooded paddy test), 13 to 15 days; for Ducksalad plant response rating: Flood, 31 g ai/ha, scale 0 to 100 (0 no effect, 100 complete control)
# How it was run: as §2
# [11] = tested on: umbrella sedge (Cyperus difformis); experiment: Test B flooded paddy test; conditions: for Plant response rating, Flood, Sedge, Umbrella: 250 g ai/ha, flooded paddy test, visual rating on 0 to 100 scale (0 no effect, 100 complete control) after 13 to 15 days; for Plant response rating, Sedge, Umbrella: Flood (flooded paddy test), 13 to 15 days; for Sedge, Umbrella plant response rating: Flood, 31 g ai/ha, scale 0 to 100 (0 no effect, 100 complete control)
# How it was run: as §2
# rice (Oryza sativa) = experiment: Test B flooded paddy test; conditions: for Plant response rating, Flood, Rice: 250 g ai/ha, flooded paddy test, visual rating on 0 to 100 scale (0 no effect, 100 complete control) after 13 to 15 days; for Plant response rating, Rice: Flood (flooded paddy test), 13 to 15 days; for Rice plant response rating: Flood, 31 g ai/ha, scale 0 to 100 (0 no effect, 100 complete control)
# How it was run: as §2
# [12] = 31 g ai/ha, postemergence, scale 0 to 100, 0 is no effect, 100 is complete control
# [13] = postemergence, 100 is complete control
# [14] = Postemergence, 125 g ai/ha, visual rating after 13 to 15 days, scale 0 (no effect) to 100 (complete control)
# [15] = Postemergence, 250 g ai/ha, scale 0 to 100 (0 no effect, 100 complete control)
# [16] = Postemergence, 125 g ai/ha, 0 to 100 scale where 0 is no effect and 100 is complete control
# [17] = Postemergence, 500 g ai/ha, 0 to 100 scale, 0 = no effect, 100 = complete control, approx. ten days
# [18] = Preemergence, 125 g ai/ha, 0 to 100 scale, 0 = no effect, 100 = complete control
# [19] = Preemergence, 500 g ai/ha, visual injury, 0 to 100 scale (0 no effect, 100 complete control), approx. ten days
# [20] = 62 g ai/ha, scale of 0 to 100 where 0 is no effect and 100 is complete control
# [21] = 125 g ai/ha, scale 0 to 100, 0 is no effect, 100 is complete control
smiles,measurement,setting,value
CCCCCn1c(-c2ccccc2)ncc(C(=O)C2=C(O)CCCC2=O)c1=O [Compound 89],"Plant response rating, Barley",[1]; [12],0
same,Barley plant response rating (0 to 100 scale),[1]; [13],5
same,"Plant response rating, Barley",[1]; [14],10
same,"Plant response rating, Barley",[1]; [15],20
same,"Plant response rating, Wheat",[2]; [16],0
same,"Plant response rating, Wheat",[2]; [17],20
same,"Plant response rating, Wheat",[2]; [18],0
same,"Plant response rating, Wheat",[2]; [19],30
same,"Plant response rating, Barnyardgrass",[3]; [16],90
same,"Plant response rating, Barnyardgrass",[3]; [17],90
same,"Plant response rating, Barnyardgrass",[3]; [18],20
same,"Plant response rating, Barnyardgrass",[3]; [19],80
same,"Plant response rating, Corn",corn (Zea mays); [16],0
same,"Plant response rating, Corn",corn (Zea mays); [17],10
same,"Plant response rating, Corn",corn (Zea mays); [18],0
same,"Plant response rating, Corn",corn (Zea mays); [19],0
same,"Plant response rating, Pigweed",[4]; [16],100
same,"Plant response rating, Pigweed",[4]; [17],100
same,"Plant response rating, Pigweed",[4]; [18],90
same,"Plant response rating, Pigweed",[4]; [19],100
same,"Plant response rating, Foxtail, Giant",[5]; [16],60
same,"Plant response rating, Foxtail, Giant",[5]; [17],90
same,"Plant response rating, Foxtail, Giant",[5]; [18],20
same,"Plant response rating, Foxtail, Giant",[5]; [19],70
same,"Plant response rating, Crabgrass, Large",[6]; [16],90
same,"Plant response rating, Crabgrass, Large",[6]; [17],100
same,"Plant response rating, Crabgrass, Large",[6]; [18],60
same,"Plant response rating, Crabgrass, Large",[6]; [19],90
same,"Plant response rating, Velvetleaf",[7]; [16],100
same,"Plant response rating, Velvetleaf",[7]; [17],100
same,"Plant response rating, Velvetleaf",[7]; [18],70
same,"Plant response rating, Velvetleaf",[7]; [19],100
same,"Plant response rating, Morningglory",[8]; [16],100
same,"Plant response rating, Morningglory",[8]; [17],100
same,"Plant response rating, Morningglory",[8]; [18],0
same,"Plant response rating, Morningglory",[8]; [19],70
same,"Plant response rating, Flood, Barnyardgrass",[9],40
same,"Plant response rating, Barnyardgrass",[9]; [20],20
same,"Plant response rating, Barnyardgrass",[9]; [21],30
same,Barnyardgrass plant response rating,[9],20
same,"Plant response rating, Flood, Ducksalad",[10],100
same,"Plant response rating, Ducksalad",[10]; [20],90
same,"Plant response rating, Ducksalad",[10]; [21],100
same,Ducksalad plant response rating,[10],45
same,"Plant response rating, Flood, Sedge, Umbrella",[11],85
same,"Plant response rating, Sedge, Umbrella",[11]; [20],85
same,"Plant response rating, Sedge, Umbrella",[11]; [21],85
same,"Sedge, Umbrella plant response rating",[11],30
same,"Plant response rating, Flood, Rice",rice (Oryza sativa),15
same,"Plant response rating, Rice",rice (Oryza sativa); [20],0
same,"Plant response rating, Rice",rice (Oryza sativa); [21],0
same,Rice plant response rating,rice (Oryza sativa),0
CC(C)n1c(-c2ccccc2)ncc(C(=O)C2=C(O)CCCC2=O)c1=O [Compound 95],"Plant response rating, Barley",[1]; [12],0
same,Barley plant response rating (0 to 100 scale),[1]; [13],0
same,"Plant response rating, Barley",[1]; [14],0
same,"Plant response rating, Barley",[1]; [15],0
same,"Plant response rating, Wheat",[2]; [16],0
same,"Plant response rating, Wheat",[2]; [17],0
same,"Plant response rating, Wheat",[2]; [18],0
same,"Plant response rating, Wheat",[2]; [19],0
same,"Plant response rating, Barnyardgrass",[3]; [16],80
same,"Plant response rating, Barnyardgrass",[3]; [17],90
same,"Plant response rating, Barnyardgrass",[3]; [18],40
same,"Plant response rating, Barnyardgrass",[3]; [19],80
same,"Plant response rating, Corn",corn (Zea mays); [16],0
same,"Plant response rating, Corn",corn (Zea mays); [17],10
same,"Plant response rating, Corn",corn (Zea mays); [18],0
same,"Plant response rating, Corn",corn (Zea mays); [19],0
same,"Plant response rating, Pigweed",[4]; [16],100
same,"Plant response rating, Pigweed",[4]; [17],100
same,"Plant response rating, Pigweed",[4]; [18],90
same,"Plant response rating, Pigweed",[4]; [19],100
same,"Plant response rating, Foxtail, Giant",[5]; [16],70
same,"Plant response rating, Foxtail, Giant",[5]; [17],90
same,"Plant response rating, Foxtail, Giant",[5]; [18],30
same,"Plant response rating, Foxtail, Giant",[5]; [19],60
same,"Plant response rating, Crabgrass, Large",[6]; [16],90
same,"Plant response rating, Crabgrass, Large",[6]; [17],90
same,"Plant response rating, Crabgrass, Large",[6]; [18],50
same,"Plant response rating, Crabgrass, Large",[6]; [19],90
same,"Plant response rating, Velvetleaf",[7]; [16],100
same,"Plant response rating, Velvetleaf",[7]; [17],100
same,"Plant response rating, Velvetleaf",[7]; [18],90
same,"Plant response rating, Velvetleaf",[7]; [19],100
same,"Plant response rating, Morningglory",[8]; [16],100
same,"Plant response rating, Morningglory",[8]; [17],100
same,"Plant response rating, Morningglory",[8]; [18],70
same,"Plant response rating, Morningglory",[8]; [19],90
same,"Plant response rating, Flood, Barnyardgrass",[9],70
same,"Plant response rating, Barnyardgrass",[9]; [20],35
same,"Plant response rating, Barnyardgrass",[9]; [21],65
same,Barnyardgrass plant response rating,[9],20
same,"Plant response rating, Flood, Ducksalad",[10],20
same,"Plant response rating, Ducksalad",[10]; [20],0
same,"Plant response rating, Ducksalad",[10]; [21],0
same,Ducksalad plant response rating,[10],0
same,"Plant response rating, Flood, Sedge, Umbrella",[11],75
same,"Plant response rating, Sedge, Umbrella",[11]; [20],20
same,"Plant response rating, Sedge, Umbrella",[11]; [21],50
same,"Sedge, Umbrella plant response rating",[11],0
same,"Plant response rating, Flood, Rice",rice (Oryza sativa),30
same,"Plant response rating, Rice",rice (Oryza sativa); [20],20
same,"Plant response rating, Rice",rice (Oryza sativa); [21],30
same,Rice plant response rating,rice (Oryza sativa),0
